Values quoted from earlier work in US11723868B2, “Biodegradable polymer microsphere compositions for parenteral administration” (Adare Pharmaceuticals USA, Inc., priority 2016, dated 2023).

How the values were obtained:
[1] = properties of drugs used, Table B
[2] = properties of drugs used, Table B; remark: listed apart in the source

| logP [1] | Water Solubility [2] [µg/mL] | SMILES |
| --- | --- | --- |
| 4.67 | <3 | COc1cc2c(cc1Cc1cccc(Cl)c1F)c(=O)c(C(=O)O)cn2[C@H](CO)C(C)C [Drug A, Elvitegravir] |
| 3.40 | <7 | C#C[C@]1(O)CC[C@H]2[C@@H]3CCC4=CC(=O)CC[C@@H]4[C@H]3C(=C)C[C@@]21CC [Drug C, Etonogestrel] |

| SMILES | logP [1] | Water Solubility [2] [µg/mL] |
| --- | --- | --- |
| C[C@@H](O)[C@@H]1NC(=O)[C@H](CCCCN)NC(=O)[C@@H](Cc2c[nH]c3ccccc23)NC(=O)[C@H](Cc2ccccc2)NC(=O)[C@@H](NC(=O)[C@H](N)Cc2ccccc2)CSSC[C@@H](C(=O)N[C@H](CO)[C@@H](C)O)NC1=O [Drug D, Octreotide] | – | >10000 |
